Assay results from patent US20220307021A1, “A NEUROPILIN ANTAGONIST IN COMBINATION WITH A P38ALPHA-KINASE INHIBITOR FOR THE TREATMENT OF CANCER” (INSERM (Institut National de la santé et de la Recherche …, priority 2019, published 2022).

Legend:
[1] = test system: RSK-1/RSK-2, MSK-2, HSP-27, GSK-3, p70S6K; test: Human phosphokinase proteome profiler array, MDA-MB-231: downstream kinase substrates; type: cell-based; details: MDA-MB-231, compound at IC50, 10 and 60 minutes
Experimental: (§1) MDA-MB-231 cells were incubated in the presence or absence of NRPa-47 or NRPa-48 compounds (IC50) and protein lysates were prepared and quantified as previously described. Biochemical signaling detection was evaluated by using human proteome profiler array (human phosphokinase array and human apoptosis array) according to the manufacturer's instructions (R&D systems, France). Briefly, capture and control antibodies were spotted in duplicate on nitrocellulose membranes. Cellular extracts were incubated overnight on membrane, washed to remove unbound proteins, followed by incubation with a cocktail of biotinylated detection antibodies. Streptavidin-HRP and chemiluminescent detection reagents were applied, and the signal intensity corresponding to the amount of protein bound was measured at each capture spot using ImageJ software.

VEGF-A165/NRP-1 = target: T1, VEGF-A165/NRP-1 (Homo sapiens, UniProt O14786); details: previously described [15]; cited from earlier work
T1 sequence (O14786 22-856 limits assumed): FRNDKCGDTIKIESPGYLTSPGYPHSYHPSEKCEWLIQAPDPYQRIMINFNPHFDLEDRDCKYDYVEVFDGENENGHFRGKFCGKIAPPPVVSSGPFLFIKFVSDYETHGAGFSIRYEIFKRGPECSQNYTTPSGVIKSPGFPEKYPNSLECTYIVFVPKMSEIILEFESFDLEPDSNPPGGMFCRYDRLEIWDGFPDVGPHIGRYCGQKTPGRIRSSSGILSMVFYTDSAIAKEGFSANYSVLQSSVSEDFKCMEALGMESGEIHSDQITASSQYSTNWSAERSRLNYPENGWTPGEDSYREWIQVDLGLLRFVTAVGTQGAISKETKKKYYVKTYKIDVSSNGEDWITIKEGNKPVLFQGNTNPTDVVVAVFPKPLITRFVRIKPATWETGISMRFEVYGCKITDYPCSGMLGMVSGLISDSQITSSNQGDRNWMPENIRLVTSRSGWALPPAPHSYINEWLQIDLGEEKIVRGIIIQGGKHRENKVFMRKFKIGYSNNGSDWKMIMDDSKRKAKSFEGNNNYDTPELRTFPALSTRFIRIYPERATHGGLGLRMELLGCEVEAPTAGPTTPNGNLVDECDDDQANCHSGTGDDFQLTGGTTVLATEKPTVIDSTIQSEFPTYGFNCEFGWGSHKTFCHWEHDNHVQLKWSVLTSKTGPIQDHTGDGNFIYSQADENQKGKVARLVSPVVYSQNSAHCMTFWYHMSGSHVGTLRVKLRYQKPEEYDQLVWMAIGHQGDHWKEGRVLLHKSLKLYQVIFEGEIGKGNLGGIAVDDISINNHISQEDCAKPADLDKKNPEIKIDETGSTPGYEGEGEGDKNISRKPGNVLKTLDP

[2] = target: selected panel of 40 protein kinases; test: Protein kinase profiling (Eurofins); type: biochemical; details: 1 μM of each NRPa, relative to DMSO control
Experimental: NRPa-47 and NRPa-48 specificity profiling assays were carried out at Eurofins Pharma Discovery Services (Dundee, UK) for Protein Kinase Profiling against a selected panel of 40 protein kinases. Results of protein kinases assayed at 1 μM of each NRPa are presented as a percentage of kinase activity in DMSO control reactions.

VEGF-A165 mRNA = test: RT-PCR of VEGF-A165 mRNA in MDA-MB-231; type: cell-based, human; details: MDA-MB-231, time dependent, maximum effect at 60 minutes
Experimental: (§2) MDA-MB-231 RNA was extracted with NucleoSpinRNA II kit (Macherey-Nagel, France) and quantified using Nanodrop (ND-1000 spectrophotometer). 1 μg of each RNA sample was reverse-transcripted into cDNA using iScript cDNA Synthesis Kit (Bio-Rad, France) following the manufacturer's instructions. PCR amplification was performed in reaction mixture (25 μL) containing 200 μM of each dNTP, 1 μg of cDNA, 1 μM of primers and 0.625 U of GoTaq DNA Polymerase (Promega, France) with 45 s of denaturation at 95° C., 45 s of annealing at 60° C. and 1 min of extension at 72° C. for 30 cycles. PCR products were separated by 1% agarose gel electrophoresis, stained with ethidium bromide (Sigma, Germany) and analyzed using Gel Doc 2000 System (Bio-Rad, France).

JNK-1/-2/-3/-pan = test: Human phosphokinase proteome profiler array, MDA-MB-231; type: cell-based; details: MDA-MB-231, compound at IC50, 10 and 60 minutes
Experimental: as §1

AKT-1/-2/-3/-pan = test: as above; type: cell-based; details: MDA-MB-231, compound at IC50, 10 and 60 minutes
Experimental: as §1

p38α = test: as above; type: cell-based; details: MDA-MB-231, compound at IC50, 10 and 60 minutes
Experimental: as §1

ERK-1/-2 = test: as above; type: cell-based; details: MDA-MB-231, compound at IC50, 10 and 60 minutes
Experimental: as §1

p38β/p38γ/p38δ = test: as above; type: cell-based; details: MDA-MB-231, compound at IC50, 10 and 60 minutes
Experimental: as §1

MDA-MB-231 [3] = test: Human apoptosis proteome profiler array, MDA-MB-231; type: cell-based; details: for HIF-1α expression: MDA-MB-231, compound at IC50
Experimental: as §1

MDA-MB-231 [4] = details: read-out: half maximal inhibitory anti-proliferative concentration (IC50); MDA-MB-231, previously reported; cited from earlier work
HIF-1α mRNA = test: RT-PCR of HIF-1α mRNA in MDA-MB-231; type: cell-based, human; details: MDA-MB-231, time dependent, maximum effect at 60 minutes
Experimental: as §2

[5] = test system: MDA-MB-231-xenografted NOG mice; test: In vivo xenografted-tumor mouse model
Experimental: Protocol was approved by the INSERM Institutional Care and Use Committee according to the European Communities Council Directive. NOD/scid/IL-2Rγ−/− (NOG) female mice were bred and housed in pathogen-free conditions in accordance with the Federation of European Animal Associations (FELSA) guidelines. […]. […] Tumor growth and body weight were measured every three days during the treatment. Mice were weighed regularly to assess the toxicity of the treatment and the tumors were measured with calipers (width×width×length×Pi/6) to determine growth.

[6] = MDA-MB-231, compound at IC50, 60 minutes and 48 hours

Row | Structure (SMILES) | GSK-3 phosphorylation [1] | HSP27 phosphorylation [1] | MSK2 phosphorylation [1] | RSK-1 phosphorylation [1] | RSK-2 phosphorylation [1] | kinase activity of 40-selected kinases in vitro [2] | JNK-1/-2/-3/-pan phosphorylation (JNK-1/-2/-3/-pan) | AKT-1/-2/-3/-pan phosphorylation (AKT-1/-2/-3/-pan) | p38α phosphorylation (p38α) | ERK-1/-2 phosphorylation (ERK-1/-2) | p38β/p38γ/p38δ phosphorylation (p38β/p38γ/p38δ) | HIF-1α expression (MDA-MB-231 [3]) | anti-apoptotic proteins (Bcl-2, Bcl-x, cIAP-1, cIAP-2, XIAP, Survivin, Livin, Clusterin) and heat shock proteins (HSP-27/-60/-70) level (MDA-MB-231 [3]; [6]) | caspase-3 cleavage (MDA-MB-231 [3]; [6]) | catalase (oxidative stress) (MDA-MB-231 [3]; [6]) | cell cycle protein expression (p21, p27) and phosphorylation of Rad-17 (MDA-MB-231 [3]; [6]) | heme oxygenase HO-1/HMOX1/HSP32 and HO-2/HMOX2 expression (MDA-MB-231 [3]; [6]) | p53 phosphorylation sites (MDA-MB-231 [3]; [6]) | pro-apoptotic proteins (Bad, Bax, SMAC/Diablo, HTRA2/Omi, cytochrome c) level (MDA-MB-231 [3]; [6]) | IC50 (MDA-MB-231 [4]) | also measured
1 | Cc1ccc(-c2nc3ccccc3[nH]2)cc1NC(=S)NC(=O)c1ccc2c(c1)OCCO2 [NRPa-47, N-[5-(1H-benzimidazol-2-yl)-2-methylphenyl]-N′-(2,3-dihydro-1,4-benzodioxin-6-ylcarbonyl)thiourea] | affected | dephosphorylated | dephosphorylated | remained unchanged | increase in phosphorylation | None of these were significantly affected | significant hyper-phosphorylations | up-regulated | significantly decreased | significant hyper-phosphorylations | no significant variation | inhibit HIF-1α expression | significantly reduced | induction | catalase induction | reduction | both reduced | inhibited | rapid decrease | 0.6 µM | p70S6K phosphorylation [1]: up-regulated; VEGF-A165/NRP-1 binding (VEGF-A165/NRP-1): inhibited VEGF-A165/NRP-1 binding; VEGF-A165 mRNA expression (VEGF-A165 mRNA): reduced; HIF-1α mRNA expression (HIF-1α mRNA): reduced
2 | O=C(NC(=S)Nc1cccc(-c2nc3ccccc3[nH]2)c1)c1ccc2c(c1)OCCO2 [NRPa-48, N-[3-(1H-benzimidazol-2-yl)phenyl]-N′-(2,3-dihydro-1,4-benzodioxin-6-ylcarbonyl)thiourea] | inhibited in a time dependent manner | inhibited in a time dependent manner | inhibited in a time dependent manner | inhibited in a time dependent manner | inhibited in a time dependent manner | None of these were significantly affected | significantly inhibited | inhibited from 10 minutes until 60 minutes | significantly inhibited | significantly inhibited | significantly inhibited | inhibit HIF-1α expression | down-modulated | induction | high level of catalase | reduction | both reduced | inhibited | significantly decreased | 0.4 µM | body weight of treated animals ([5]; 50 mg/kg by force-feeding, three times a week): did not show any loss of weight; treated mice alive at the end of treatment ([5]; 50 mg/kg force-feeding): 62%; tumor size reduction compared to the reference group ([5]; 50 mg/kg force-feeding, Day-38 (21 days after starting treatment)): approximately 29%; tumor size reduction ([5]; 50 mg/kg force-feeding, Day-45): 34%; median survival ([5]; 50 mg/kg force-feeding, control group 35 days): over 56 days; PON-2 level (MDA-MB-231 [3]; [6]): remained unchanged
